Here are results for one compound from patent publication US20030176503A1, “Treating hepatitis C viral infections with thiosemicarbazone compounds” (priority 2001, published 2003).

In data set [1] the test system is HCV replication in Huh7_HBI10A cells containing a HCV-replicon. Put plainly: RHEPLISA assay, cell-based assay for measuring HCV replication (NS3 ELISA). Also on record: species or system hepatitis C virus. To be noted: at 40 μM. How it is done: A cell-based assay for measuring the HCV replication (RHEPLISA) was developed in a 96-well microplate format. The assay utilizes Huh-7 cellular clone (Huh7_HBI10A) containing a HCV-replicon and is based on the detection of the viral NS3 protein by ELISA. About 5000 Huh7_HBI10A cells (or Huh-7 cells as negative control), resuspended in 100 μL of complete DMEM were seeded into each well of a 96 well microtiter plate (Falcon sterile by Becton Dickinson). After 4 hours, 50 μL of an appropriate dissolution medium (e.g., DMEM) containing the compounds to test or DMSO (3%) were added, and incubated (37° C., 5% CO2) for 4 days. The medium was removed by inversion and the cells were fixed by addition of 200 μ/well of ice-cold isopropanol 100%. […]
When secondary antibody AP-conjugated was used, 100 μL of AP substrate (SIGMA 104 Phosphatase substrate tablets; i.e., one tablet in 5 ml of AP buffer: diethanolamine solution 10%, pH 9.6-9.8.) were added to each well, and the plate was read in a conventional ELISA plate reader set at 405-620 nm.
When peroxidase-conjugated secondary was used, 100 μL of TMB substrate (SIGMA) were added to each well, and the plate was incubated for 20′ in the dark. 50 μL of 0.5M H2SO4 were then added, and the plate was read in a conventional ELISA plate reader set at 450-620 nm.

In the next data set the test system is Huh7_HBI10A cells. Briefly: Cytotoxicity assay (SRB). It is filed as cell-based, human. As to conditions: at 40 μM. How it is done: About 5000 Huh7_HBI10A cells, resuspended in 100 μL of complete DMEM were seeded into each well of a 96 well microtiter plate (Falcon sterile by Becton Dickinson) and incubated (37° C., 5% CO2) for 24 hours. The medium was removed and the cells were fixed by incubation with 50 μL of 50% TCA for 1 hour at 4° C., 200 μL of ice-cold isopropanol 100% for 20 minutes at 4° C., or 100 μL of 10% paraformaldehyde for 20 minutes at room temperature. The plate was washed with water when either TCA or paraformaldehyde was used to fix the cells and with PBS 1× when isopropanol was used to fix the cells. All washings were run 3 times. After drying the plate, 200 μL of SRB 1× solution (prepared fresh from a SRB solution 10×: 4% sulforhodamine B (Sigma) in 10% acetic acid) was added to each well and incubated for 30 minutes at room temperature. The SRB 1× solution was removed by inversion and the plate was washed in 1% acetic acid 3 times. To each well was added 200 μL of 10 mM Tris pH 10.5, the plate was shaken till the color of the solution in the wells was uniform, and the plate was read in a conventional ELISA plate reader set at 570 nm.

On to `NC(=S)NN=Cc1ccccc1` [benzaldehyde thiosemicarbazone], for which the “anti-HCV activity in the RHEPLISA assay” value in data set [1] is recorded as “no anti-HCV activity”. For the same compound, the cytotoxic inhibition result in the data set on Huh7_HBI10A cells is “no cytotoxic inhibition”.
